For orientation: GI50 means the concentration that inhibits growth by half. What is called TGI is the concentration at which net growth stops. A lower TGI goes with more potent growth arrest.

From PubChem BioAssay (NCI) come the findings set out here.

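Compound exposure: 48 hours, 5 concentrations, 96-well plates. GI50 = concentration required for 50% inhibition of growth. TGI: total growth inhibition.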

Holding throughout (experiment): DTP human tumour cell line panel, 48 h
Assay [1] relates to OVCAR-4 ovarian.
Assay [2] concerns SK-MEL-5 melanoma.
The subject of assay [3] is OVCAR-5 ovarian.
In assay [4] the test system is NCI-H522 lung.
In assay [5] the test system is HL-60(TB) leukemia.
Assay [6] deals with BT-549 breast.
The test system of assay [7] is NCI-H23 lung.
Assay [8] has as its system SNB-75 CNS.
For assay [9], the system named is SNB-19 CNS.
Assay [10] concerns UACC-62 melanoma.

For the compound `CN(C)CCC(=O)Nc1ccc(-n2cc(-c3cccc(NC(=S)Nc4cccc(-c5cn(-c6ccc(NC(=O)CCN(C)C)cc6)nn5)c4)c3)nn2)cc1`, the GI50 in [1] is 35.4 µM; in assay [2], 43.9 µM; in assay [3] it was 20.6 µM; in assay [4], 27.3 µM; in assay [5] it was more than 100 µM; in [6], 22.9 µM. Also, the GI50 is 57.2 µM in assay [7], 25.6 µM in assay [8], 49.5 µM in assay [9] and 33.3 µM in assay [10]. Also, the TGI in assay [1] is more than 100 µM; in assay [2], more than 100 µM; in [3] it was 52.8 µM; in assay [4], more than 100 µM; in [5] it was more than 100 µM; in assay [6], 66.4 µM. For the same compound, the TGI in assay [7] is more than 100 µM; in assay [8], 65.6 µM; in assay [9] it was more than 100 µM; in assay [10], 98.8 µM.
On to `COc1cc(/C=N/NC(=O)c2cnn3c2NC(c2ccccc2)C3)ccc1OC1CCCC1` (stereo not given), for which the GI50 was 2.01 µM in [1]; 0.59 µM in assay [2]; 1.84 µM in [3]; 0.475 µM in assay [4]; 0.384 µM in assay [5]; 1.46 µM in assay [6]. Further, the GI50 in assay [7] is 1.44 µM; in assay [8], 0.207 µM; in assay [9] it was 0.923 µM; in assay [10], 0.573 µM. Besides, the TGI in assay [1] came out at 7.75 µM; in assay [2], 4.77 µM; in assay [3], 10.9 µM; in assay [4], 6.54 µM; in [5] it was 3.93 µM; in assay [6], 5.74 µM. Also, the TGI came out at 8.85 µM in assay [7], 0.778 µM in assay [8], 10.9 µM in [9] and 3.67 µM in [10].
As to `Nc1cc2c3c(cccc3c1)C(=O)N(CCN1CCCC1)C2=O`, the GI50 in assay [1] was 4.75 µM; in assay [2], 1.65 µM; in assay [3], 4.73 µM; in assay [4] it was 3.46 µM; in assay [5], 4.16 µM; in assay [6], 6.49 µM. Also, the GI50 in [7] is 3.33 µM; in [8], 3.4 µM; in assay [9], 3.33 µM; in [10], 2.47 µM. For the same compound, the TGI is 42.5 µM in [1]; 4.01 µM in assay [2]; more than 57.6 µM in assay [3]; 19.4 µM in assay [4]; more than 100 µM in [5]; 29.8 µM in assay [6]. Also, the TGI in assay [7] was determined as 22.8 µM; in assay [8], 17 µM; in assay [9], 29 µM; in assay [10], 9.99 µM.
On to `Cn1c(COC(=O)NCCc2ccccn2)nc2c(N3CCOCC3)nc(Cl)nc21`, for which the GI50 was 1.62 µM in assay [1]; 1.74 µM in [2]; 1.73 µM in [3]; 1.35 µM in assay [4]; 1.17 µM in assay [5]; 1.71 µM in [6]. The GI50 in assay [7] was 2 µM; in [8], 1.38 µM; in [9] it was 3.97 µM; in assay [10], 1.65 µM. The TGI amounted to 3.63 µM in [1]; 3.29 µM in assay [2]; 3.68 µM in assay [3]; 3.16 µM in assay [4]; 4.61 µM in assay [5]; 4.06 µM in [6]. For the same compound, the TGI in assay [7] was 4.7 µM; in [8], 11.8 µM; in [9] it was 16.1 µM; in assay [10], 3.29 µM.
As for `Oc1ccc(Cl)cc1C=Nc1cnc2ccccc2c1`, the TGI in assay [1] was more than 100 µM; in [2] it was more than 90 µM; in [3], more than 100 µM; in assay [4], more than 100 µM; in assay [5], 34.9 µM; in assay [6], more than 100 µM. The TGI in assay [7] was more than 100 µM; in assay [8] it was more than 87.6 µM; in assay [9] it was more than 100 µM; in [10], more than 100 µM.
For the compound `CSc1nc(Nc2cccc(NC(=O)CCl)c2)c(C#N)c(-c2cccc([N+](=O)[O-])c2)n1`, the GI50 was 2.06 µM in assay [1]; 1.51 µM in assay [2]; 2.45 µM in assay [3]; 1.68 µM in assay [4]; 1.82 µM in assay [5]; 1.79 µM in assay [6]. The GI50 was 1.7 µM in assay [7], 0.682 µM in [8], 2.06 µM in assay [9] and 1.35 µM in [10]. In addition, the TGI in assay [1] came out at 6.77 µM; in [2], 3.28 µM; in [3] it was 6.13 µM; in assay [4], 5.36 µM; in [5], 6.48 µM; in [6], 5.68 µM. The TGI in [7] came out at 4.35 µM; in assay [8] it was 4.8 µM; in assay [9], 4.78 µM; in assay [10], 3.17 µM.
On to `Cc1ccc(/C(=N/Nc2ccc([N+](=O)[O-])cc2)Sc2cc(Cl)c(C)cc2S(N)(=O)=O)cc1`, for which the GI50 was 1.28 µM in assay [1]; 1.78 µM in assay [2]; 2.45 µM in assay [3]; 4.96 µM in [4]; 11.9 µM in assay [5]; 10.4 µM in assay [6]. Besides, the GI50 is 1.64 µM in [7], 2.06 µM in assay [8], 2.5 µM in assay [9] and 1.73 µM in assay [10]. Further, the TGI is 3.75 µM in assay [1]; 5.56 µM in assay [2]; 6.16 µM in assay [3]; more than 28.2 µM in assay [4]; 42.1 µM in [5]; 26 µM in assay [6]. Also, the TGI was 3.59 µM in assay [7], 3.94 µM in [8], more than 20.5 µM in assay [9] and 3.64 µM in assay [10].
Consider `COc1cc(C2CC(c3ccc(Nc4nc(NCCO)nc(NCCO)n4)cc3)=NN2c2cc(Cl)cc(Cl)c2)cc(OC)c1OC` (stereo not given), for which the GI50 in assay [1] was 1.63 µM; in [2], 1.7 µM; in assay [3] it was 2.15 µM; in assay [4] it was 2.25 µM; in assay [5] it was 1.5 µM; in assay [6] it was 1.67 µM. Also, the GI50 is 2.02 µM in assay [7], 1.05 µM in [8], 1.72 µM in [9] and 1.58 µM in assay [10]. For the same compound, the TGI stood at 3.66 µM in assay [1]; 3.34 µM in assay [2]; 7.56 µM in assay [3]; 9.21 µM in assay [4]; 3.43 µM in assay [5]; 4.54 µM in assay [6]. The TGI in [7] amounted to 4.97 µM; in [8], 3.05 µM; in assay [9], 4.12 µM; in [10] it was 3.04 µM.
